Experimental data reported in ChEMBL document CHEMBL3865792, “Antioxidant and antitumor activity of trolox, trolox succinate, and α-tocopheryl succinate conjugates with nitroxides” (Eur J Med Chem, 2016).

Tested on: not listed separately
Test: Cytotoxicity against mouse LMTK cells assessed as reduction in cell viability after 72 hrs by MTT assay
Assay type: toxicity
Conditions: not given

| Structure (SMILES) | IC50 at 72 h |
| --- | --- |
| Cc1c(C)c2c(c(C)c1O)CC[C@@](C)(CCC[C@H](C)CCC[C@H](C)CCCC(C)C)O2 [ALPHA-TOCOPHEROL] | > 300 µM |

Tested on: not listed separately
Test: Cytotoxicity against human MT4 cells assessed as reduction in cell viability after 72 hrs by MTT assay
Assay type: functional, cell-based
Conditions: MT4, 72 h

| Structure (SMILES) | IC50 |
| --- | --- |
| Cc1c(C)c2c(c(C)c1O)CC[C@@](C)(CCC[C@H](C)CCC[C@H](C)CCCC(C)C)O2 [ALPHA-TOCOPHEROL] | 165 µM |

Tested on: Salmonella typhimurium
Test: Genotoxicity in Salmonella typhimurium TA102 harboring […] mutant assessed as frequency of reversion from histidine auxotrophy to prototrophy at 0.35 mM after 48 hrs by Ames test (reference value: 209 +/- 10 No _unit)
Assay type: toxicity, organism-based
Conditions: salmonella enterica subsp. enterica serovar typhimurium, 350 µM

| Structure (SMILES) | Activity |
| --- | --- |
| CC(C)(C)OO [TERT-BUTYL HYDROPEROXIDE] | 482 |

Tested on: not listed separately
Test: Cytotoxicity against human CEM13 cells assessed as reduction in cell viability at 300 uM after 72 hrs by MTT assay
Assay type: functional
Conditions: CEM13, 72 h

| Structure (SMILES) | inhibition at 300 µM |
| --- | --- |
| Cc1c(C)c2c(c(C)c1O)CC[C@@](C)(CCC[C@H](C)CCC[C@H](C)CCCC(C)C)O2 [ALPHA-TOCOPHEROL] | 35% |

Tested on: not listed separately
Test: Cytotoxicity against human MCF7 cells assessed as reduction in cell viability at 300 uM after 72 hrs by MTT assay
Assay type: functional
Conditions: MCF7, 72 h

| Structure (SMILES) | inhibition at 300 µM |
| --- | --- |
| Cc1c(C)c2c(c(C)c1O)CC[C@@](C)(CCC[C@H](C)CCC[C@H](C)CCCC(C)C)O2 [ALPHA-TOCOPHEROL] | 37% |

Tested on: not listed separately
Test: Cytotoxicity against human RPMI8226 cells assessed as reduction in cell viability after 72 hrs by MTT assay
Assay type: functional, cell-based
Conditions: RPMI-8226, 72 h

| Structure (SMILES) | IC50 |
| --- | --- |
| Cc1c(C)c2c(c(C)c1O)CC[C@@](C)(CCC[C@H](C)CCC[C@H](C)CCCC(C)C)O2 [ALPHA-TOCOPHEROL] | > 300 µM |

Tested on: Salmonella typhimurium
Test: Genotoxicity in Salmonella typhimurium TA102 harboring […] mutant assessed as frequency of reversion from histidine auxotrophy to prototrophy at 30 mM after 48 hrs by Ames test (reference value: 209 +/- 10 No _unit)
Assay type: toxicity, organism-based
Conditions: salmonella enterica subsp. enterica serovar typhimurium, 30000 µM

| Structure (SMILES) | Activity |
| --- | --- |
| Cc1c(C)c2c(c(C)c1O)CC[C@@](C)(CCC[C@H](C)CCC[C@H](C)CCCC(C)C)O2 [ALPHA-TOCOPHEROL] | 217 |

Tested on: not listed separately
Test: Cytotoxicity against hamster AG17-1 cells assessed as reduction in cell viability at 300 uM after 72 hrs by MTT assay
Assay type: toxicity, cell-based, Cricetulus griseus
Conditions: Chinese hamster, read-out: INH

| Structure (SMILES) | cytotoxicity at 72 h, 300 µM |
| --- | --- |
| Cc1c(C)c2c(c(C)c1O)CC[C@@](C)(CCC[C@H](C)CCC[C@H](C)CCCC(C)C)O2 [ALPHA-TOCOPHEROL] | 12% |

Tested on: not listed separately
Test: Genotoxicity in Escherichia coli PQ37 expressing lacZ gene assessed as ratio of inducible beta-galactosidase activity to alkaline phosphatase activity at 1 mM after 2 hrs by SOS-chromotest relative to control
Assay type: toxicity
Conditions: Escherichia coli PQ37 cells expressing lacZ gene, read-out: FC

| Structure (SMILES) | fold induction at 2 h, 1000 µM |
| --- | --- |
| CC(C)(C)OO [TERT-BUTYL HYDROPEROXIDE] | 11.6 |

Tested on: not listed separately
Test: Cytotoxicity against human HepG2 cells assessed as reduction in cell viability after 72 hrs by MTT assay
Assay type: functional, cell-based
Conditions: HepG2, 72 h

| Structure (SMILES) | IC50 |
| --- | --- |
| Cc1c(C)c2c(c(C)c1O)CC[C@@](C)(CCC[C@H](C)CCC[C@H](C)CCCC(C)C)O2 [ALPHA-TOCOPHEROL] | > 300 µM |

Tested on: not listed separately
Test: Cytotoxicity against human HepG2 cells assessed as reduction in cell viability at 300 uM after 72 hrs by MTT assay
Assay type: functional
Conditions: HepG2, 72 h

| Structure (SMILES) | inhibition at 300 µM |
| --- | --- |
| Cc1c(C)c2c(c(C)c1O)CC[C@@](C)(CCC[C@H](C)CCC[C@H](C)CCCC(C)C)O2 [ALPHA-TOCOPHEROL] | 0% |

Tested on: not listed separately
Test: Cytotoxicity against human MCF7 cells assessed as reduction in cell viability after 72 hrs by MTT assay
Assay type: functional, cell-based
Conditions: MCF7, 72 h

| Structure (SMILES) | IC50 |
| --- | --- |
| Cc1c(C)c2c(c(C)c1O)CC[C@@](C)(CCC[C@H](C)CCC[C@H](C)CCCC(C)C)O2 [ALPHA-TOCOPHEROL] | > 300 µM |

Tested on: not listed separately
Test: Cytotoxicity against human RPMI8226 cells assessed as reduction in cell viability at 300 uM after 72 hrs by MTT assay
Assay type: functional
Conditions: RPMI-8226, 72 h

| Structure (SMILES) | inhibition at 300 µM |
| --- | --- |
| Cc1c(C)c2c(c(C)c1O)CC[C@@](C)(CCC[C@H](C)CCC[C@H](C)CCCC(C)C)O2 [ALPHA-TOCOPHEROL] | 0% |

Tested on: not listed separately
Test: Genotoxicity in Escherichia coli PQ37 expressing lacZ gene assessed as ratio of inducible beta-galactosidase activity to alkaline phosphatase activity at 3 mM after 2 hrs by SOS-chromotest relative to control
Assay type: toxicity
Conditions: Escherichia coli PQ37 cells expressing lacZ gene, read-out: FC

| Structure (SMILES) | fold induction at 2 h, 3000 µM |
| --- | --- |
| Cc1c(C)c2c(c(C)c1O)CC[C@@](C)(CCC[C@H](C)CCC[C@H](C)CCCC(C)C)O2 [ALPHA-TOCOPHEROL] | 1.28 |

Tested on: not listed separately
Test: Cytotoxicity against human U937 cells assessed as reduction in cell viability after 72 hrs by MTT assay
Assay type: functional, cell-based
Conditions: U-937, 72 h

| Structure (SMILES) | IC50 |
| --- | --- |
| Cc1c(C)c2c(c(C)c1O)CC[C@@](C)(CCC[C@H](C)CCC[C@H](C)CCCC(C)C)O2 [ALPHA-TOCOPHEROL] | 100 µM |

Tested on: Salmonella enterica subsp. enterica serovar Typhimurium
Test: Antioxidant activity in Salmonella typhimurium TA102 harboring […] mutant assessed as inhibition of t-BuO2H-dependant mutant formation at 30 uM preincubated with compound followed by t-BuO2H addition after 48 hrs by Ames test
Assay type: functional
Conditions: not given

| Structure (SMILES) | inhibition |
| --- | --- |
| Cc1c(C)c2c(c(C)c1O)CC[C@@](C)(CCC[C@H](C)CCC[C@H](C)CCCC(C)C)O2 [ALPHA-TOCOPHEROL] | 15% |

Tested on: Salmonella enterica subsp. enterica serovar Typhimurium
Test: Antioxidant activity in Salmonella typhimurium TA102 harboring […] mutant assessed as inhibition of t-BuO2H-dependant mutant formation at 3 uM preincubated with compound followed by t-BuO2H addition after 48 hrs by Ames test
Assay type: functional
Conditions: not given

| Structure (SMILES) | inhibition |
| --- | --- |
| Cc1c(C)c2c(c(C)c1O)CC[C@@](C)(CCC[C@H](C)CCC[C@H](C)CCCC(C)C)O2 [ALPHA-TOCOPHEROL] | 13% |

Tested on: Salmonella enterica subsp. enterica serovar Typhimurium
Test: Antioxidant activity in Salmonella typhimurium TA102 harboring […] mutant assessed as inhibition of t-BuO2H-dependant mutant formation at 0.3 uM preincubated with compound followed by t-BuO2H addition after 48 hrs by Ames test
Assay type: functional
Conditions: not given

| Structure (SMILES) | inhibition |
| --- | --- |
| Cc1c(C)c2c(c(C)c1O)CC[C@@](C)(CCC[C@H](C)CCC[C@H](C)CCCC(C)C)O2 [ALPHA-TOCOPHEROL] | 6% |

Tested on: not listed separately
Test: Cytotoxicity against mouse LMTK cells assessed as reduction in cell viability at 300 uM after 72 hrs by MTT assay
Assay type: toxicity
Conditions: read-out: INH

| Structure (SMILES) | cytotoxicity at 72 h, 300 µM |
| --- | --- |
| Cc1c(C)c2c(c(C)c1O)CC[C@@](C)(CCC[C@H](C)CCC[C@H](C)CCCC(C)C)O2 [ALPHA-TOCOPHEROL] | 28% |

Tested on: not listed separately
Test: Cytotoxicity against hamster AG17-1 cells assessed as reduction in cell viability after 72 hrs by MTT assay
Assay type: toxicity, cell-based, Cricetulus griseus
Conditions: Chinese hamster

| Structure (SMILES) | IC50 at 72 h |
| --- | --- |
| Cc1c(C)c2c(c(C)c1O)CC[C@@](C)(CCC[C@H](C)CCC[C@H](C)CCCC(C)C)O2 [ALPHA-TOCOPHEROL] | > 300 µM |

Tested on: not listed separately
Test: Cytotoxicity against human CEM13 cells assessed as reduction in cell viability after 72 hrs by MTT assay
Assay type: functional, cell-based
Conditions: CEM13, 72 h

| Structure (SMILES) | IC50 |
| --- | --- |
| Cc1c(C)c2c(c(C)c1O)CC[C@@](C)(CCC[C@H](C)CCC[C@H](C)CCCC(C)C)O2 [ALPHA-TOCOPHEROL] | > 300 µM |
